{
  "source": "patent US8372844B2",
  "about": "“Piperazinyl-propyl-pyrazole derivatives as dopamine D4 receptor antagonists, and pharmaceutical compositions containing the same” (Korea Research Institute of Chemical Technology, priority 2007, dated 2013)",
  "key": {"[1]": {"system": "apomorphine-induced cage climbing in mice", "assay": "Apomorphine-induced climbing behavior in mice", "type": "in vivo", "settings": "ip 30 min prior to apomorphine (1 mg/kg, sc); for ED50: Mus musculus, read-out: Inhibitory effects on apomorphine-induced climbing behavior ED50 (mg/kg, ip)", "description": "When mice were treated with apomorphine (1 mg/kg, sc), a potent dopamine receptor agonist, and were put into cylindrical cages (diameter, 12 cm/height, 14 cm) with the floor and wall consisting of metal bars and covered with a lid, they begin to perform repeatedly a psychotic behavior of ‘cage climbing’. Their climbing behaviors were monitored every 10 min for 30 min and scored by 4-point rating scale (0˜3 points) depending on the extent of the behavior (Costentin, J. et al., Nature 1975, 257, 405-7; Protais, P. et al., Psychopharmacology 1976, 50, 1-6).\nThe compounds were injected intraperitoneally into mice 30 min prior to apomorphine administration. The inhibitory effects of the compounds against control group were measured and each ED50 was calculated therefrom."}, "[2]": {"target": "T1, 5-HT2C receptor (Homo sapiens, UniProt P28335)", "T1 sequence (P28335 33-458)": "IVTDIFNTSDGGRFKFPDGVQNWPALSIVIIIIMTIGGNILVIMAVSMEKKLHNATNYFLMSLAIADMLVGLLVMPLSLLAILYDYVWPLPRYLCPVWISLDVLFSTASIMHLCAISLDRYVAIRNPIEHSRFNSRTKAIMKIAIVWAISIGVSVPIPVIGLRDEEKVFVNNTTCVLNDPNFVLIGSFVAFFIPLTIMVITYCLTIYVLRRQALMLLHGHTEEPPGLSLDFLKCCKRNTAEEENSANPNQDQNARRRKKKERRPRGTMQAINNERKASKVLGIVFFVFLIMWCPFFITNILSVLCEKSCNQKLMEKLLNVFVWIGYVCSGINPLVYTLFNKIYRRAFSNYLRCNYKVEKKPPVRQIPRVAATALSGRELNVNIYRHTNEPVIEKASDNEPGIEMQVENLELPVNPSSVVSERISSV", "assay": "Serotonin receptor binding experiment, 5-HT2C", "parameters": "species or system human or rat", "settings": "[3H]Mesulergine 1 nM, 30 min at 37° C.; read-out: Receptor affinity (IC50, nM) 5-HT2C", "description": "The measurement of affinity for serotonin 5-HT receptor family was performed according to the experimental conditions as specified in Table 2 below using the method same as in Experimental Example 1 above."}, "[3]": {"target": "T2, Human recombinant dopamine D2 receptor (Homo sapiens, UniProt P14416)", "T2 construct": "purchased PerkinElmer; host or cells: CHO cell line", "T2 sequence (P14416 whole entry)": "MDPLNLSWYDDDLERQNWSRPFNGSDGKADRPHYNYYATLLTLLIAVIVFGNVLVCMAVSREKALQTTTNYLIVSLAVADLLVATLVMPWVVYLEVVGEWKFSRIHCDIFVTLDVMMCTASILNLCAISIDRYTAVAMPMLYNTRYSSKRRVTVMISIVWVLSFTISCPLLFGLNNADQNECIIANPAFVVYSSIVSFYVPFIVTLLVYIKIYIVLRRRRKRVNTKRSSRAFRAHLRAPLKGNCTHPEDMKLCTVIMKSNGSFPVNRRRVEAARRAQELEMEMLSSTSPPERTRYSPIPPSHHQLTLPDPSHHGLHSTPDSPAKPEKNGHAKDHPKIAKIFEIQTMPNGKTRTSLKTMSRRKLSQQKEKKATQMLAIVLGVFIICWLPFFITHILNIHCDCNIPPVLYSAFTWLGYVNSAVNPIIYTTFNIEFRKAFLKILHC", "assay": "Measurement of affinity for dopamine D2 receptor ([3H]spiperone binding)", "settings": "for IC50: [3H]spiperone 0.5 nM, CHO cell line, 60 min at 27° C.", "description": "Human recombinant dopamine D2 and D3 receptors, which were expressed in CHO cell lines, respectively, were purchased from PerkinElmer and Euroscreen, respectively.\n50 mM Tris-HCl (pH 7.4) containing […] and 1 mM EDTA was used as a buffer solution for the measurement of affinity for dopamine D2 receptor. 50 mM Tris-HCl (pH 7.4) containing 5 mM MgCl2, 5 mM EDTA, 5 mM KCl, 1.5 mM CaCl2 and 120 mM NaCl was used as a buffer solution for the measurement of affinity for dopamine D3 receptor. For measurement of non-specific binding, 10 μM haloperidol (haloperidol) was used."}},
  "data": [
    {"smiles": "CCCc1cc(CCCN2CCN(c3ccccc3)CC2)n(-c2ccccc2)n1", "note": "[Compound 155, 1-phenyl-4-(3-(1-phenyl-3-propyl-1H-pyrazol-5-yl)propyl)piperazine]", "values": [
      {"measurement": "ED50", "setting": "[1]", "result": "8.8 to 14.5", "unit": "mg/kg"},
      {"measurement": "Inhibitory effects on apomorphine-induced climbing behavior ED50 (mg/kg, ip)", "setting": "[1]", "result": 10.7, "unit": "mg/kg"},
      {"measurement": "IC50", "setting": "[2]", "result": 671, "unit": "nM"},
      {"measurement": "affinity for D2 receptors (in words)", "setting": "[3]", "result": "extremely poor affinity"},
      {"measurement": "IC50", "setting": "[3]", "result": 5260, "unit": "nM"}
    ]},
    {"smiles": "CCCc1cc(CCCN2CCN(c3ccccc3F)CC2)n(-c2ccccc2)n1", "note": "[Compound 156, 1-(2-fluorophenyl)-4-(3-(1-phenyl-3-propyl-1H-pyrazol-5-yl)propyl)piperazine]", "values": [
      {"measurement": "ED50", "setting": "[1]", "result": "8.8 to 14.5", "unit": "mg/kg"},
      {"measurement": "Inhibitory effects on apomorphine-induced climbing behavior ED50 (mg/kg, ip)", "setting": "[1]", "result": 9.6, "unit": "mg/kg"},
      {"measurement": "IC50", "setting": "[2]", "result": 1400, "unit": "nM"},
      {"measurement": "affinity for D2 receptors (in words)", "setting": "[3]", "result": "extremely poor affinity"},
      {"measurement": "IC50", "setting": "[3]", "result": 696, "unit": "nM"}
    ]},
    {"smiles": "CCCc1cc(CCCN2CCN(c3ccc(C)c(C)c3)CC2)n(-c2ccccc2)n1", "note": "[Compound 159, 1-(3,4-dimethylphenyl)-4-(3-(1-phenyl-3-propyl-1H-pyrazol-5-yl)propyl)piperazine]", "values": [
      {"measurement": "ED50", "setting": "[1]", "result": "8.8 to 14.5", "unit": "mg/kg"},
      {"measurement": "Inhibitory effects on apomorphine-induced climbing behavior ED50 (mg/kg, ip)", "setting": "[1]", "result": 9.1, "unit": "mg/kg"},
      {"measurement": "IC50", "setting": "[2]", "result": 154, "unit": "nM"},
      {"measurement": "affinity for D2 receptors (in words)", "setting": "[3]", "result": "extremely poor affinity"},
      {"measurement": "IC50", "setting": "[3]", "result": 2050, "unit": "nM"}
    ]},
    {"smiles": "CCCc1cc(CCCN2CCN(c3cccc(C)c3C)CC2)n(-c2ccccc2)n1", "note": "[Compound 160, 1-(2,3-dimethylphenyl)-4-(3-(1-phenyl-3-propyl-1H-pyrazol-5-yl)propyl)piperazine]", "values": [
      {"measurement": "ED50", "setting": "[1]", "result": "8.8 to 14.5", "unit": "mg/kg"},
      {"measurement": "Inhibitory effects on apomorphine-induced climbing behavior ED50 (mg/kg, ip)", "setting": "[1]", "result": 10.6, "unit": "mg/kg"},
      {"measurement": "IC50", "setting": "[2]", "result": 141, "unit": "nM"},
      {"measurement": "affinity for D2 receptors (in words)", "setting": "[3]", "result": "extremely poor affinity"},
      {"measurement": "IC50", "setting": "[3]", "result": 3790, "unit": "nM"}
    ]},
    {"smiles": "CC(C)c1cc(CCCN2CCN(c3ccccc3F)CC2)n(-c2ccccc2)n1", "note": "[Compound 177, 1-(2-fluorophenyl)-4-(3-(1-phenyl-3-isopropyl-1H-pyrazol-5-yl)propyl)piperazine]", "values": [
      {"measurement": "ED50", "setting": "[1]", "result": "8.8 to 14.5", "unit": "mg/kg"},
      {"measurement": "Inhibitory effects on apomorphine-induced climbing behavior ED50 (mg/kg, ip)", "setting": "[1]", "result": 8.8, "unit": "mg/kg"},
      {"measurement": "IC50", "setting": "[2]", "result": 505, "unit": "nM"},
      {"measurement": "affinity for D2 receptors (in words)", "setting": "[3]", "result": "extremely poor affinity"},
      {"measurement": "IC50", "setting": "[3]", "result": 227, "unit": "nM"}
    ]}
  ]
}
